According to patent US20090325877A1, “Combination Product of Receptor Tyrosine Kinase Inhibitor and Fatty Acid Synthase Inhibitor for Treating Cancer” (Wyeth, priority 2008, published 2009):
Like-named read-outs stand apart in the source and are kept apart here.

B1: matuzumab: Humanized mAb; EGFR (antibody, chains of the INN, looked up, V domains shown)
VH: QVQLVQSGAEVKKPGASVKVSCKASGYTFTSHWMHWVRQAPGQGLEWIGEFNPSNGRTNYNEKFKSKATMTVDTSTNTAYMELSSLRSEDTAVYYCASRDYDYDGRYFDYWGQGTLVTVSS
VL: DIQMTQSPSSLSASVGDRVTITCSASSSVTYMYWYQQKPGKAPKLLIYDTSNLASGVPSRFSGSGSGTDYTFTISSLQPEDIATYYCQQWSSHIFTFGQGTKVEIK

Legend:
[1] = test system: A2780 ovarian cancer cells; test: Formazan dye (MTT) in-vitro cell growth assay, A2780; assay type: cell-based; settings: for in vitro growth inhibition (in words): A2780, MTT assay, single drug
Procedure: Effect of FAS and ErbB inhibition on A2780 ovarian cancer cells (OCC). […] Cells were grown for three days in the presence of vehicle (0.1% DMSO) or synthetic inhibitor before cell number was estimated. Data in the charts represent means +/−SD of triplicate measurements.
Cells were plated at 0.5−5×10^3/well in 96-well plates. After adhesion, media ±drugs alone or in combination were added. Cell numbers were estimated after 3-5 days by using a colorimetric formazan dye assay (Biomedica, Vienna, Austria). Results (mean±SD, n=3) were expressed in percent of untreated (solvent) control. Statistical analysis of data from drug combination treatment experiments was performed using one-factorial ANOVA followed by Scheffe-test.
(§1) Yellow MTT (3-(4,5-Dimethylthiazol-2-yl)-2,5-diphenyltetrazolium bromide, a tetrazole) is reduced to purple formazan in the mitochondria of living cells (see Mosmann, T., J. Immunol. Methods, 65(1-2): 55-63, 1983).

[2] = test system: SKOV3 ovarian cancer cells; test: Formazan dye (MTT) in-vitro cell growth assay, SKOV3; assay type: cell-based; settings: for in vitro growth inhibition (in words): MTT assay, single drug
Procedure: Cells were plated at 0.5−5×10^3/well in 96-well plates. After adhesion, media ±drugs alone or in combination were added. Cell numbers were estimated after 3-5 days by using a colorimetric formazan dye assay (Biomedica, Vienna, Austria). […] Statistical analysis of data from drug combination treatment experiments was performed using one-factorial ANOVA followed by Scheffe-test.
as §1

EGFR mRNA = EGFR mRNA by RT-PCR and qRT-PCR in A2780 cells; assay type: cell-based, human
Procedure: RNA was extracted from the cells using TRI-REAGENT™ (Molecular Research Center, Cincinnati, Ohio) and subjected to reverse transcription—polymerase chain reaction (“RT-PCR”) using the TITAN ONE TUBE RT-PCR KIT™ system (Hoffmann-La Roche). […] Conditions for ErbB2 and GAPDH were: 50° C., 30 minutes; 94° C., 2 minutes; 10 cycles (94° C., 30 seconds; 51° C., 30 seconds; 68° C., 45 seconds); 25 cycles (94° C., 30 seconds; 51° C., 30 seconds; 68° C., 45 seconds +5 seconds autoextension) and 68° C., 7 minutes. […] Fragments were electrophoresed and stained with ethidium bromide.
(§2) Quantitative RT-PCR (“qRT-PCR”) was performed in the ABI PRISM 7000™ Sequence Detector (Applied Biosystems, Foster City, Calif.) using human EGFR, ErbB2, and FASN TaqMan® Gene Expression Assay systems (Applied Biosystems; Assay IDs: Hs00193306_m1, Hs00170433_m1, Hs00188012_m1) according to the manufacturer's instructions. β-actin and GAPDH (VIC™ and FAM labeled pre-developed TaqMan® Assay reagents, Applied Biosystems) were used as endogenous controls. EGFR, ErbB2, and FASN mRNA expression were calculated as described previously (Grunt, ibid).

FASN mRNA [3] = test: FASN mRNA expression by qRT-PCR in A2780 cells; assay type: cell-based, human; settings: b102: within three days, pelitinib at doses as low as 3 μM
Source text: (§3) RNA was extracted from the cells using TRI-REAGENT™ (Molecular Research Center, Cincinnati, Ohio) and subjected to reverse transcription—polymerase chain reaction (“RT-PCR”) using the TITAN ONE TUBE RT-PCR KIT™ system (Hoffmann-La Roche). Primers were: EGFR: 5′-[…]-3′ (SEQ ID NO:1) (forward, E1S) 5′-[…]-3′ (SEQ ID NO:2) (reverse, E1A); ErbB-2: 5′-[…]-3′ (SEQ ID NO:3) (forward, E2S2), 5′-[…]-3′ (SEQ ID NO:4) (reverse, E2A2); GAPDH: 5′-[…]-3′ (SEQ ID NO:5) (forward, GAPDH3S), 5′-[…]-3′ (SEQ ID NO:6) (reverse, GAPDH3A). Conditions for reverse transcription and amplification of the EGFR coding sequence were: 50° C., 30 minutes; 94° C., 2 minutes; 10 cycles (94° C., 30 seconds; 64.9° C., 30 seconds; 68° C., 90 seconds); 30 cycles (94° C., 30 seconds; 64.9° C., 30 seconds; 68° C., 90 seconds +5 seconds autoextension) and 68° C., 7 minutes. Conditions for ErbB2 and GAPDH were: 50° C., 30 minutes; 94° C., 2 minutes; 10 cycles (94° C., 30 seconds; 51° C., 30 seconds; 68° C., 45 seconds); 25 cycles (94° C., 30 seconds; 51° C., 30 seconds; 68° C., 45 seconds +5 seconds autoextension) and 68° C., 7 minutes. DNA products had the following sizes: EGFR: 1452 bp, ErbB2: 900 bp, GAPDH: 488 bp. Fragments were electrophoresed and stained with ethidium bromide.
as §2

EGFR protein = EGFR protein and tyrosine phosphorylation by Western blot in A2780 cells; assay type: cell-based
ErbB2 protein = test: Total and phosphorylated ErbB2 protein by Western blot in A2780 cells; assay type: cell-based
Procedure: (§4) Cells plated in culture media containing 5% fetal calf serum at a density of 2.6×10^5 (SKOV3) or 6×10^5 (A2780) in 60 mm dishes (Corning, Corning, N.Y.) were treated with FASN inhibitor C75, with small-molecule ErbB RTK inhibitors (RTKIs), with the MEK1/2 antagonist U0126 or with the PI3K inhibitor LY294002 for the indicated times and at various concentrations. In some experiments cells were stimulated for 5 or 10 min with 100 ng/ml EGF (Sigma) before lysis in RIPA buffer (Grunt et al., Biochem Biophys Res Commun 329:1253-1259, 2005). Proteins (20 μg/lane) were subjected to SDS-PAGE, blotted onto PVDF membranes and immunostained (see Grunt, ibid) using the following antibodies: 2 μg/ml goat anti-pEGFR(Tyr1173) (sc-12351), 1 μg/ml rabbit anti-ErbB2 (C-18) (sc-284), 1 μg/ml rabbit anti-pErbB2(Tyr1248) (sc-12352-R) (all from Santa Cruz Biotechnology Inc., Santa Cruz, Calif.), rabbit anti-EGFR 1:1,000 (2232), rabbit anti-AKT 1:1,000 (9272), rabbit anti-pAKT(Ser473) 1:1,000 (9271), rabbit anti-pAKT(Thr308) 1:1,000 (9275), rabbit anti-pERK1/2(Thr202/Tyr204) 1:1,000 (9101) (all from Cell Signaling Technology), rabbit anti-ERK1/2 1:3,000 (06-182, Upstate Biotechnology Inc., Lake Placid, N.Y.), 0.5 μg/ml mouse monoclonal anti-FASN (610963, BD Biosciences, San Jose, Calif.), or 0.67 μg/ml goat anti-human actin (1-19, sc-1616, Santa Cruz Biotechnology). Secondary antibodies were peroxidase-tagged donkey-anti-rabbit IgG (V795A, Promega, Madison, Wis.) or donkey-anti-goat IgG (sc-2020, Santa Cruz Biotechnology) at 1:15,000, respectively, or chicken anti-mouse IgG (sc-2954, Santa Cruz Biotechnology) at 1:10,000. Detection was performed by enhanced chemiluminescence.

FASN protein [4] = test: FASN protein level by Western blotting in A2780 cells; assay type: cell-based; settings: b102: within three days, pelitinib at doses as low as 3 μM
ErbB2 mRNA = ErbB2 mRNA by RT-PCR and qRT-PCR in A2780 cells; assay type: cell-based, human
Source text: as §3, §2

FASN mRNA [5] = test: FASN mRNA levels in SKOV3 cells; assay type: cell-based, human
Source text: RNA was extracted from the cells using TRI-REAGENT™ (Molecular Research Center, Cincinnati, Ohio) and subjected to reverse transcription—polymerase chain reaction (“RT-PCR”) using the TITAN ONE TUBE RT-PCR KIT™ system (Hoffmann-La Roche). Primers were: EGFR: 5′-[…]-3′ (SEQ ID NO:1) (forward, E1S) 5′-[…]-3′ (SEQ ID NO:2) (reverse, E1A); ErbB-2: 5′-[…]-3′ (SEQ ID NO:3) (forward, E2S2), 5′-[…]-3′ (SEQ ID NO:4) (reverse, E2A2); GAPDH: 5′-[…]-3′ (SEQ ID NO:5) (forward, GAPDH3S), 5′-[…]-3′ (SEQ ID NO:6) (reverse, GAPDH3A). Conditions for reverse transcription and amplification of the EGFR coding sequence were: 50° C., 30 minutes; 94° C., 2 minutes; 10 cycles (94° C., 30 seconds; 64.9° C., 30 seconds; 68° C., 90 seconds); 30 cycles (94° C., 30 seconds; 64.9° C., 30 seconds; 68° C., 90 seconds +5 seconds autoextension) and 68° C., 7 minutes. […]
as §2

FASN protein [6] = test: FASN protein levels by Western blotting in SKOV3 cells; assay type: cell-based
Procedure: as §4, with “Secondary antibodies were peroxidase-tagged donkey-anti-rabbit IgG (V795A, Promega, Madison, Wis.) or donkey-anti-goat IgG (sc-2020, Santa Cruz Biotechnology) at 1:15,000, respectively, or chicken anti-mouse IgG (sc-2954, Santa Cruz Biotechnology) at 1:10,000. Detection was performed by enhanced chemiluminescence.” left out

Row | Molecule | in vitro growth inhibition (in words) [1] | in vitro growth inhibition (in words) [2] | EGFR mRNA, effect in words (EGFR mRNA) | FASN mRNA expression, effect in words (FASN mRNA [3]) | EGFR total protein, effect in words (EGFR protein) | phosphorylated ErbB2 (pErbB2), effect in words (ErbB2 protein) | total ErbB2 protein, effect in words (ErbB2 protein) | FASN protein expression, effect in words (FASN protein [4]) | ErbB2 mRNA, effect in words (ErbB2 mRNA) | also measured
1 | C=CC(=O)Nc1cc2c(Nc3ccc(F)c(Cl)c3)ncnc2cc1OCCCN1CCOCC1 [canertinib] | growth inhibitory activity | growth inhibitory activity | does not diminish | effect was also seen | does not diminish | strongly diminishes | slightly attenuates | effect was also seen | fails to down-regulate | 
2 | N#CC(=C(/N)Sc1ccccc1N)/C(C#N)=C(\N)Sc1ccccc1N [U0126] |  |  |  |  |  |  |  |  |  | FASN mRNA levels, effect in words (FASN mRNA [5]): does not affect; FASN protein levels, effect in words (FASN protein [6]): does not affect
3 | C#Cc1cccc(Nc2ncnc3cc(OCCOC)c(OCCOC)cc23)c1 [erlotinib] | does not significantly inhibit growth | does not significantly inhibit growth |  | effect was also seen |  |  |  | effect was also seen |  | 
4 | CCOc1cc2ncc(C#N)c(Nc3ccc(F)c(Cl)c3)c2cc1NC(=O)C=CCN(C)C [EKB-569, 4-Dimethylamino-but-2-enoic acid [4-(3-chloro-4-fluoro-phenylamino)-3-cyano-7-ethoxy-quinolin-6-yl]-amide] | growth inhibitory activity | growth inhibitory activity | weak dose-dependent repression | represses | abolishes | abolishes | abolishes | represses | only weakly depresses | IC50 ([1]; Homo sapiens, 72 h, A2780 OCC, each individual inhibitor, 50% reduction of cell growth, three days, n = 3-5, read-out: IC50 (μM) Mean +/− SD): 5.14 µM; EGFR mRNA, effect in words (EGFR mRNA; listed as pelitinib): dose-dependent down-regulation; FASN mRNA expression, effect in words (FASN mRNA [3]; listed as pelitinib): abrogated; EGFR tyrosine phosphorylation (activity), effect in words (EGFR protein): dose-dependent reduction; EGFR total protein, effect in words (EGFR protein; listed as pelitinib): dose-dependent down-regulation; EGFR tyrosine phosphorylation (activity), effect in words (EGFR protein; listed as pelitinib): completely abrogates; phosphorylated ErbB2 (pErbB2), effect in words (ErbB2 protein; listed as pelitinib): abrogated; total ErbB2 protein, effect in words (ErbB2 protein; listed as pelitinib): abrogated; FASN protein expression, effect in words (FASN protein [4]; listed as pelitinib): abrogated; ErbB2 mRNA, effect in words (ErbB2 mRNA; listed as pelitinib): do not appear to be affected
5 | B1 |  |  |  |  |  |  |  |  |  | growth inhibition ([2]; antibody alone at 20 μg/ml): ~10%
